The source of these data is patent publication US12583858B2 (Genentech, Inc., priority 2015, dated 2026).

Where two headings read alike, the source gives them in different places.

For orientation: EC50 means the concentration giving half of the maximal effect.

The target in experiment [1] is T1, IDO (Homo sapiens, UniProt P14902).
T1 construct: selective against A172+IFNg cells (high IDO expressing cells)
Put plainly: IDO cell assay (NFK GreenScreen, A172+IFNg cells). The following applies: A172 cells + 100 ng/ml IFNγ (high IDO expressing), 100 uM tryptophan, 24 hours; TDO selectivity table; read-out: IDO cell Fluor EC50. The experiment is classed as cell-based. As to the method: Cells are counted on a Vi-Cell (Beckman Coulter). […] The final DMSO concentration is 0.5%.
Compounds of the invention were tested for selectivity against TDO over IDO. The cell based assay described above was used to test for TDO and IDO activity.

Experiment [2] deals with T2, TDO2 (Homo sapiens, UniProt P48775).
T2 construct: decreased levels of NFK in SW48 cells (high TDO expressing cells)
Put plainly: TDO2 cell assay (NFK GreenScreen, SW48 cells). The experiment is classed as cell-based. The following applies: SW48 cells (high TDO expressing).

The mark [3] stands for this setting: 200 uM tryptophan, 24 hours, Table 3, read-out: TDO2 Cell Fluor EC50.
Where [4] appears, read: TDO selectivity table, read-out: TDO2 cell Fluor EC50.

T2 sequence (P48775 whole entry): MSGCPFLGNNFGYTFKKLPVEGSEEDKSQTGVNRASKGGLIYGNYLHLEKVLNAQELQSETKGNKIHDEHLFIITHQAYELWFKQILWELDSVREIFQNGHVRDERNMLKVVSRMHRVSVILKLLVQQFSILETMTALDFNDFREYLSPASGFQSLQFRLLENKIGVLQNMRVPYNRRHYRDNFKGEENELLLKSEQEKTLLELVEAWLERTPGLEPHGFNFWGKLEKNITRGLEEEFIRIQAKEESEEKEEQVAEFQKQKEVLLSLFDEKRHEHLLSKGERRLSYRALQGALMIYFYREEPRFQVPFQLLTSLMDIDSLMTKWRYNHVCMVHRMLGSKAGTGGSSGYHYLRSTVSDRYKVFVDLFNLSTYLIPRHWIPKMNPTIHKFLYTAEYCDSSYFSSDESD
T1 sequence (P14902 whole entry): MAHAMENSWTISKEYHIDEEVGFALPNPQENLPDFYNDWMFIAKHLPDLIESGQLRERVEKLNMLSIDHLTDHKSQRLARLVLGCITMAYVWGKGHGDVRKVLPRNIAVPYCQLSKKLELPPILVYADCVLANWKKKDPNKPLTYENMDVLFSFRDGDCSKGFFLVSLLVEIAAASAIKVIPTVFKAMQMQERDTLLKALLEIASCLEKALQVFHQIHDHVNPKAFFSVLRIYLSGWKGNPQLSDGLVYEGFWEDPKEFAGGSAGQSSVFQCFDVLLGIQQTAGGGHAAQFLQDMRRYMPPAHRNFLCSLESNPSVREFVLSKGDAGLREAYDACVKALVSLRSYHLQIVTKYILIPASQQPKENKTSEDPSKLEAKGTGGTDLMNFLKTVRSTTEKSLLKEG

Turning to `CCS(=O)(=O)N1CC[C@@H]([C@H]2c3ccccc3-c3cncn32)[C@H](O)C1` [Example 16a, (3S,4S)-1-(ethylsulfonyl)-4-((S)-5H-imidazo[5,1-a]isoindol-5-yl)piperidin-3-ol], the EC50 in experiment [1] is 1200 nM; in experiment [2] (setting [3]), 110 nM; in experiment [2] (setting [4]), 110 nM.

For `OC1c2cnccc2CCC1C1c2ccccc2-c2cncn21` (single isomer, unassigned) [Example 04e], the EC50 is 1200 nM in experiment [1], 49 nM in experiment [2] (setting [3]) and 49 nM in experiment [2] (setting [4]).

As to `Cn1ncc2c1CCC(C1c3ccccc3-c3cncn31)C2O` (single isomer, unassigned) [Example 93a], the results for the EC50 in experiment [1], in experiment [2] (setting [3]) and in experiment [2] (setting [4]) were 13000 nM, 380 nM and 380 nM, respectively.

For `OC1c2[nH]ncc2CCC1C1c2ccccc2-c2cncn21` (single isomer, unassigned) [Example 157g], the figures for the EC50 in experiment [1], in experiment [2] (setting [3]) and in experiment [2] (setting [4]) were 8000 nM, 42 nM and 42 nM, respectively.

As for `OC1c2cnncc2CCC1C1c2ccccc2-c2cncn21` (single isomer, unassigned) [Example 112b], the half-maximal effective concentration (EC50) in experiment [1] worked out at 15000 nM; in experiment [2] (setting [3]), 240 nM; in experiment [2] (setting [4]), 240 nM.

For `O[C@@H]1CC[C@H]1[C@H]1c2ccccc2-c2cncn21` [Example 01d, (1R,2S)-2-((S)-5H-imidazo[5,1-a]isoindol-5-yl)cyclobutan-1-ol], the figures for the EC50 in experiment [1], in experiment [2] (setting [3]) and in experiment [2] (setting [4]) were 2400 nM, 37 nM and 37 nM, respectively.

`CC1(C)C[C@@H](O)[C@@H]1[C@H]1c2ccccc2-c2cncn21` [Example 22b, (1R,2S)-2-((S)-5H-imidazo[5,1-a]isoindol-5-yl)-3,3-dimethylcyclobutan-1-ol]: the EC50 was 2000 nM in experiment [1], 16 nM in experiment [2] (setting [3]) and 16 nM in experiment [2] (setting [4]).

For `NC(=O)c1ccc2c(c1)C(O)C(C1c3ccccc3-c3cncn31)CC2` (single isomer, unassigned) [Example 122a], the values for the EC50 in experiment [1], in experiment [2] (setting [3]) and in experiment [2] (setting [4]) were 2600 nM, 35 nM and 35 nM, respectively.

On to `NS(=O)(=O)c1ccc2c(c1)CCC(C1c3ccccc3-c3cncn31)C2O` (single isomer, unassigned) [Example 100g], for which the concentration giving a half-maximal response (EC50) in experiment [1] was found to be 1700 nM; in experiment [2] (setting [3]), 57 nM; in experiment [2] (setting [4]) it was 57 nM.

For the compound `O[C@@H]1c2cncn2CC[C@H]1[C@H]1c2ccccc2-c2cncn21` [Example 07h, (7S,8S)-7-((S)-5H-imidazo[5,1-a]isoindol-5-yl)-5,6,7,8-tetrahydroimidazo[1,5-a]pyridin-8-ol], the EC50 in experiment [1] was more than 25000 nM; in experiment [2] (setting [3]), 860 nM; in experiment [2] (setting [4]) it was 860 nM.

As to `NC(=O)c1nc2c(s1)CCC(C1c3ccccc3-c3cncn31)C2O` (single isomer, unassigned) [Example 149b], the EC50 amounted to 2100 nM in experiment [1], 55 nM in experiment [2] (setting [3]) and 55 nM in experiment [2] (setting [4]).

Take `Cn1cc2c(n1)CCC(C1c3ccccc3-c3cncn31)C2O` (single isomer, unassigned) [Example 130d]: the EC50 in experiment [1] is 1800 nM; in experiment [2] (setting [3]) it was 87 nM; in experiment [2] (setting [4]) it was 87 nM.

Consider `O[C@@H]1c2ccnn2CC[C@H]1[C@H]1c2ccccc2-c2cncn21` [Example 56a, (4S,5S)-5-((S)-5H-imidazo[5,1-a]isoindol-5-yl)-4,5,6,7-tetrahydropyrazolo[1,5-a]pyridin-4-ol], for which the concentration for a half-maximal effect (EC50) was 4500 nM in experiment [1], 150 nM in experiment [2] (setting [3]) and 150 nM in experiment [2] (setting [4]).

For `NS(=O)(=O)N1CCC(O)C(C2c3ccccc3-c3cncn32)CC1` (single isomer, unassigned) [Example 101d, 4-hydroxy-5-(5H-imidazo[5,1-a]isoindol-5-yl)azepane-1-sulfonamide], the results for the EC50 in experiment [1], in experiment [2] (setting [3]) and in experiment [2] (setting [4]) were 21000 nM, 770 nM and 770 nM, respectively.

On to `OC1C(C2c3ccc(F)cc3-c3cncn32)CC12CCOCC2` (single isomer, unassigned) [Example 109c], for which the results for the EC50 in experiment [1], in experiment [2] (setting [3]) and in experiment [2] (setting [4]) were more than 25000 nM, 230 nM and 230 nM, respectively.

As to `NC(=O)c1ccc2c(c1)CC[C@@H]([C@H]1c3ccccc3-c3cncn31)[C@@H]2O` [Example 60e, (5S,6S)-5-hydroxy-6-((S)-5H-imidazo[5,1-a]isoindol-5-yl)-5,6,7,8-tetrahydronaphthalene-2-carboxamide], the EC50 in experiment [1] came to 1400 nM; in experiment [2] (setting [3]) it was 35 nM; in experiment [2] (setting [4]), 35 nM.

Consider `OC1c2cncnc2CCC1C1c2ccccc2-c2cncn21` (single isomer, unassigned) [Example 94c], for which the values for the EC50 in experiment [1], in experiment [2] (setting [3]) and in experiment [2] (setting [4]) were 8400 nM, 110 nM and 110 nM, respectively.

For the compound `C[C@H](O)[C@H]1c2ccccc2-c2cncn21` [Example 42c, (S)-1-((R)-5H-imidazo[5,1-a]isoindol-5-yl)ethan-1-ol], the EC50 in experiment [1] is 5000 nM; in experiment [2] (setting [3]), 250 nM; in experiment [2] (setting [4]), 250 nM.

As to `Cc1cc2c(cn1)[C@H](O)[C@H]([C@@H]1c3ccccc3-c3cncn31)C2` [Example 59b, (6S,7R)-6-((R)-5H-imidazo[5,1-a]isoindol-5-yl)-3-methyl-6,7-dihydro-5H-cyclopenta[c]pyridin-7-ol], the 50% effective concentration (EC50) in experiment [2] (setting [3]) worked out at 820 nM.

For the compound `O=S(=O)(C1CC1)N1CC[C@@H]([C@@H]2c3ccccc3-c3cncn32)[C@H](O)C1` (single isomer, unassigned) [Example 81a], the 50% effective concentration (EC50) in experiment [2] (setting [3]) turned out to be 5300 nM.

On to `OC1c2cncnc2CCC1C1c2ccccc2-c2cncn21` (single isomer, unassigned) [Example 94e], for which, in experiment [2] (setting [3]), the EC50 came out at 2000 nM.

In the case of `OC1(C2c3ccccc3-c3cncn32)COC1` (racemic) [Example 48, 3-(5H-imidazo[5,1-a]isoindol-5-yl)oxetan-3-ol], the concentration giving a half-maximal response (EC50) in experiment [2] (setting [3]) worked out at 7260 nM.

Consider `OC1c2cnncc2CCC1C1c2ccccc2-c2cncn21` (single isomer, unassigned) [Example 112h], for which the half-maximal effective concentration (EC50) in experiment [2] (setting [3]) is more than 25000 nM.

With `CS(=O)(=O)c1ccc2c(c1)OCC(C1c3ccccc3-c3cncn31)C2O` (single isomer, unassigned) [Example 91h], the EC50 in experiment [2] (setting [3]) was more than 25000 nM.

Consider `CS(=O)(=O)N1CC2(CC(C3c4ccccc4-c4cncn43)C2O)C1` (stereo not drawn) [Example 183, 6-(5H-imidazo[5,1-a]isoindol-5-yl)-2-(methylsulfonyl)-2-azaspiro[3.3]heptan-5-ol], for which the EC50 in experiment [2] (setting [3]) was 220 nM.

In the case of `CS(=O)(=O)N1CCC(O)C(C2c3ccccc3-c3cncn32)CC1` (single isomer, unassigned) [Example 92b], the EC50 in experiment [2] (setting [3]) is 8600 nM.

In the case of `NS(=O)(=O)N1CCC2(CC1)CC(C1c3ccccc3-c3cncn31)C2O` (single isomer, unassigned) [Example 181b], the EC50 in experiment [2] (setting [3]) was more than 25000 nM.

Consider `CS(=O)(=O)N1CCC(C2c3ccccc3-c3cncn32)C(O)C1` (single isomer, unassigned) [Example 79a], for which the EC50 in experiment [2] (setting [3]) is 8100 nM.

Regarding `O[C@@H]1CCC(F)(F)C[C@@H]1[C@H]1c2ccccc2-c2cncn21` (single isomer, unassigned) [Example 18b], the EC50 in experiment [2] (setting [3]) stood at 62 nM.

As for `Cc1ccc2c(c1)-c1cncn1C2C1COCC1O` (single isomer, unassigned) [Example 171a], the EC50 in experiment [2] (setting [3]) was 999 nM.
